Test results as given in patent US20080318861A1, “Mucosal Delivery of Stabilized Formulations of Exendin” (NASTECH PHARMACEUTICAL COMPANY INC., priority 2005, published 2008).

What was measured:
[1] = test system: normal, human-derived tracheal/bronchial epithelial cells (EpiAirway Tissue Model); experiment: MTT cell viability assay; format: cell-based; settings: for toxicity / cell viability in excipient screening (in words): cell viability as measured by LDH and MTT, exenatide formulation containing the named excipient
Description: The extraction plate was covered and scaled to reduce evaporation of extractant.

[2] = Physical stability by clarity (absorbance at 630 nm) on storage at 5° C.; settings: stored at 5° C. (refrigerated) for at least two weeks
Experimental: In vitro testing of exenatide formulations included a preservatives screen. Physical stability after storage at 5° C. was measured for all formulations tested in vitro. Exenatide formulations were placed in 1 cc glass vials and closed with trifoil lined caps and stored at 5° C. for at least two weeks. Physical stability was monitored by measuring clarity. Clarity of a formulation was determined by measuring absorbance at 630 nm, using the μQuant optical density plate reader for each formulation at days 0, 7, and 14. A 200 μL volume from each vial was placed in a 96-well plate and read against a background of water.
Varying concentrations of sodium benzoate (NaBz) and benzalkonium chloride (BAK), were screened for their effect on physical stability of the three formulations used in in vivo studies. Sodium benzoate was added at 1.0, 2.5, and 5.0 mg/mL, while BAK was tested at 0.2, 1.0, 2.0, and 4.0 mg/mL. To prepare the samples, varying amounts of stock solutions of the two preservatives were added to the three prepared formulations dosed in the PK study. […] The resulting formulations were stored at 5° C. for 5.5 weeks. Physical stability was monitored by measuring the absorbance of the solution at 630 nm.
Sodium benzoate was added at concentrations of 1.0 to 5.0 mg/mL, while BAK was tested at 0.05, 0.075, and 0.1 mg/mL. To prepare the samples, varying amounts of stock solutions of the two preservatives were added to the formulations prepared in the PK study and the pH was adjusted to 4.5 with HCl as necessary. The resulting formulations were stored at 5° C. for 4 weeks. Physical stability was monitored by measuring the absorbance of the solution at […].
The second formulation lacked any buffer to test the effect of the buffer itself on physical stability.

[3] = test system: epithelial tissue barrier (EpiAirway Tissue Model); experiment: In vitro permeation of exenatide across the cellular barrier (EIA analysis); settings: for exenatide permeation (in words): compared with AKL-225-126-2 or control without enhancers
Description: Initial studies focused on optimizing the concentrations of Me-β-CD, DDPC, EDTA, and gelatin to enhance exenatide permeation across an epithelial tissue layer.
A second round of studies, series B, systematically screened several excipients for their potential to enhance exenatide permeation to a greater degree than the Me-β-CD, DDPC, EDTA, and gelatin combinations. […] Initially, each excipient (except for those classified as “generally regarded as safe” (GRAS) by the FDA, recombinant gelatins, and PN159), was tested at two concentrations or in combination with Me-β-CD, DDPC, or EDTA. As with series A formulations, each formulation was evaluated for exenatide permeation, ability to reduce TER while not adversely affecting cell viability, and formulation physical stability.

[4] = test system: normal, human-derived tracheal/bronchial epithelial cells (EpiAirway Tissue Model); experiment: Transepithelial electrical resistance (TER) in the in vitro nasal epithelial model; format: cell-based; settings: 60 min exposure
Description: A cell line from MatTek Corp. (Ashland, Mass.) was used as the source of normal, human-derived tracheal/bronchial epithelial cells (EpiAirway™ Tissue Model). […] The cells were provided as inserts grown to confluence on Millipore Milicell-CM filters comprised of transparent hydrophilic Teflon (PTFE). […] TER measurements were accomplished using the Endohm-12 Tissue Resistance Measurement Chamber connected to the EVOM Epithelial Voltohmmeter (World Precision Instruments, Sarasota, Fla.) with the electrode leads. The electrodes and a tissue culture blank insert were equilibrated for at least twenty (20) minutes in phosphate buffered solution with the power off prior to checking calibration. The background resistance was measured with 1.5 mL media in the Endohm tissue chamber and 300 μL media in a blank Millicell-CM insert. […] The background resistance of the blank insert was 5-12 ohms.
TER was measured before and after the sixty (60) minute incubation. […] After the 60 minute incubation with test samples, 200 μL of fresh media was gently added to the apical surface of each test sample insert and final TER was measured for each insert. […] Resistance is expressed as follows: (resistance measured−blank)×0.6 cm^2.

[5] = test system: normal, human-derived tracheal/bronchial epithelial cells (EpiAirway Tissue Model); experiment: Lactate dehydrogenase (LDH) cytotoxicity assay; format: cell-based
Experimental: The amount of cell death was assayed by measuring the loss of lactate dehydrogenase (LDH) from the cells using a CytoTox 96 Cytoxicity Assay Kit (Promega Corp., Madison, Wis.). Fresh, cell-free culture medium was used as a blank. 50 μl harvested media (stored at 4° C.) was loaded in a 96-well plate. Substrate Solution (50 μl) was added to each well and the plates were incubated for thirty (30) minutes at ambient temperature in the dark. Following incubation, 50 μl of Stop Solution was added to each well and the reaction was monitored at A490 using an optical density plate reader. Media alone applied to the apical side served as a negative control while triton X served as the positive control for the LDH assay.

O=C(O)CN(CCN(CC(=O)O)CC(=O)O)CC(=O)O [EDTA]
toxicity / cell viability in excipient screening (in words) [1]: cell viability began to decrease

CCCCCCCCC(=O)OC[C@H](COP(=O)([O-])OCC[N+](C)(C)C)OC(=O)CCCCCCCC [dinonanoyl glycero phosphatidylcholine]
physical stability (clarity) [2]: becoming turbid in less than two weeks at refrigerated conditions

hydroxypropyl-β-cyclodextrin [H-β-CD]
exenatide permeation (in words) [3]: did not increase permeation significantly

Tween-80
exenatide permeation (in words) [3]: failed to enhance exenatide permeation to the same extent as formulation AKL-225-126-2

CCCCCCCC/C=C\CCCCCCCC(=O)O [oleic acid]
toxicity / cell viability in excipient screening (in words) [1]: lowered cell viability

CCCCCCCCO[C@@H]1O[C@H](CO)[C@H](O)[C@H](O)[C@H]1O [galactopyranoside, n-Octyl-β-D-galactopyranoside]
toxicity / cell viability in excipient screening (in words) [1]: toxic at 10 mg/mL

CCCCCCCCCC(=O)[O-].[Na+] [sodium caprate]
physical stability (clarity) [2]: physical instability in the absence of Me-β-CD | toxicity / cell viability in excipient screening (in words) [1]: low cell viability at 50 mM alone

triton X
TER reduction (in words) [4]: lowest possible TER | cytotoxicity as measured by % LDH (in words) [5]: significant toxicity | cytotoxicity as measured by % MTT (in words) [1]: significant toxicity

CCCCCCCC(=O)[O-].[Na+] [sodium caprylate]
exenatide permeation (in words) [3]: failed to enhance exenatide permeation to any extent alone or with permeation enhancers | physical stability (clarity) [2]: physical instability in the absence of Me-β-CD | toxicity / cell viability in excipient screening (in words) [1]: toxic at 20 mM with Me-β-CD and EDTA

CCO [ethanol]
exenatide permeation (in words) [3]: did not enhance exenatide permeation

CC(O)CO (stereo not shown) [propylene glycol]
exenatide permeation (in words) [3]: failed to enhance permeation at all

C[C@H](CCC(=O)NCC(=O)[O-])[C@H]1CC[C@H]2[C@@H]3[C@H](O)C[C@@H]4C[C@H](O)CC[C@]4(C)[C@H]3C[C@H](O)[C@]12C.[Na+] [Sodium glycocholate, sodium glycocholate]
physical stability (clarity) [2]: physically instable at high concentrations

dimethyl-β-cyclodextrin [DMe-β-CD]
fold increase in exenatide permeation over AKL-225-126-2 ([3]; full dose volume (100 µL)): 1.5 fold | toxicity / cell viability in excipient screening (in words) [1]: more toxic to the cells than Me-β-CD

CCCCCCCCCCCCCCCC(=O)OC(CC(=O)[O-])C[N+](C)(C)C (racemic) [Palmitoyl-DL-carnitine, palmitoyl-DL-carnitine]
physical stability (clarity) [2]: physically instable without Me-β-CD | toxicity / cell viability in excipient screening (in words) [1]: toxic at high concentrations

OC[C@H]1O[C@@H]2O[C@H]3[C@H](O)[C@@H](O)[C@@H](O[C@H]4[C@H](O)[C@@H](O)[C@@H](O[C@H]5[C@H](O)[C@@H](O)[C@@H](O[C@H]6[C@H](O)[C@@H](O)[C@@H](O[C@H]7[C@H](O)[C@@H](O)[C@@H](O[C@H]8[C@H](O)[C@@H](O)[C@@H](O[C@H]1[C@H](O)[C@H]2O)O[C@@H]8CO)O[C@@H]7CO)O[C@@H]6CO)O[C@@H]5CO)O[C@@H]4CO)O[C@@H]3CO [β-cyclodextrin]
physical stability (clarity) [2]: became turbid at refrigerated conditions
